Like-named read-outs stand apart in the source and are kept apart here.
What was measured:
P2Y2 receptor = target: T1, P2Y2 receptor (Homo sapiens, UniProt P41231); assay: IP1 accumulation assay (kit IP-one HTRF); assay type: cell-based
T1 construct: host or cells: cells not identified for the IP1 assay
Protocol: The compounds described herein may be tested for their ability to elicit P2Y2 receptor activity using in vitro IP1 accumulation, intracellular calcium mobilization, mucus production and ciliary beat frequency assays, ex vivo Short Current Circuit and fluid transport assays for P2Y2 and other P2Y receptor activity assays, as described below.
Cells in midlog phase are collected with PBS-EDTA, washed and resuspended in medium without antibiotics at a concentration of 2×10^5 cells/ml. Cells (200 μL or 40.000 cells) are then distributed into a 96 well plate (Cellstar, Greiner, 655083). The plate is incubated overnight at 37° C. in a cell culture incubator. The next morning, the medium is removed and replaced by 50 μL of agonist diluted in the stimulation buffer provided with the kit IP-one (CisBio, 621P1PEB). The plate is incubated for 1 h at 37° C. in a cell culture incubator. 25 μL of the antibody diluted in lysis buffer is then added to each well. 25 μL of the IP1-d2 diluted in lysis buffer is added to each well and the plate is incubated for 1 h. at room temperature. The plate is then read on a Rubystar and dose-response curves are generated by plotting the ligand concentrations versus the DeltaF ratio.
EC50 values for certain compounds were obtained through an IP1 accumulation assay (kit IP-one HTRF), as described above.

male Balb/C mice [1] = assay: Total gastrointestinal transit, carmine red dye meal, time to first red pellet and feces weight; assay type: in vivo; settings: oral gavage 5 and 50 mg/kg
Protocol: Briefly, mice were administered a meal containing a non-absorbable red dye (carmine) and were monitored for 3 hours. Feces were collected and time of expulsion was recorded. Feces were weighed fresh and again after overnight drying. Time to first red-colored feces was used as a measure of total GI transit time. Total weight of wet and dry feces was used as a measure of fluid secretion.
Male Balb/C mice were fasted overnight with free access to water. They were then given access to food and water for 30 minutes. They were finally moved to empty plastic cages with no access to food or water. After 1 hour, each mouse was fed a liquid meal of 0.5% methylcellulose (weight-to-volume w/v) in water containing 3% carmine dye (w/v) as well as doses of the test compound at 5 and 50 mg/kg (10 mL/kg) with a gavage needle. Control animals received vehicle only. Each animal was held in an individual cage for the following 3 hours. The expulsion time of each feces was recorded to the nearest 5 seconds. Each feces was placed in a tared vial and the vial was capped. Fresh feces were weighed and the vials were kept uncapped overnight at 37° C. The feces were then weighed again. Average times to first red-colored feces for vehicle- and compound-dosed animals were compared using a Student's t-test (two-sided, unequal variance). A P-value of 0.05 or less was considered statistically significant. […]

male Balb/C mice [2] = assay: Gastric retention and small intestine transit, 30 min after Tc-sulfur colloid meal; assay type: in vivo; settings: 30 min after meal, tegaserod 0.1 mg/kg ip, lubiprostone 0.1 mg/kg oral, compound C 50 mg/kg oral; for geometric center (GC) of the small intestine: 1-way ANOVA or Student's t-test, FIG. 3; for stomach retention, percentage of total radioactivity left in the stomach: FIG. 5
Protocol: Male Balb/C mice were fasted overnight with free access to water. Water was then removed for 30 minutes. Each mouse was subsequently gavaged a liquid meal of 0.5% methylcellulose (weight-to-volume w/v) and 10% corn oil (volume-to-volume v/v) in water containing 5-10 μCi of an non-absorbable Tc-sulfur colloid radioactive marker as well as compound C at doses between 2 and 50 mg/kg (10 mL/kg), or lubiprostone at 100 μg/kg. A group was dosed with tegaserod (100 μg/kg) injected ip just prior to receiving vehicle by oral gavage. Control animals received vehicle only. Animals were euthanized 30 minutes after dosing and their GI tract was excised from the stomach down. The stomach was counted alone. The small intestine was extended and cut into 10 equally sized pieces, labeled 1 to 10 from stomach to caecum. Each piece of the small intestine, and the stomach, were counted for radioactivity. The geometric center (GC) of the small intestine was calculated according to GC=(Σ(i×Ci))/(ΣCi), where i is the label of the segment (from 1 to 10) and Ci is the number of counts. GC is a number between 1 and 10. The closer GC is to 10, the faster the small intestinal transit. Gastric retention was calculated as percent of total dose counted. GC's and gastric retentions were compared between dose and vehicle groups using a Student's t-test. A P-value of less than 0.05 was considered statistically significant, as depicted in FIGS. 3-5.

male Balb/C mice [3] = assay: Large intestine transit, 2.5 hr after Tc-sulfur colloid meal; assay type: in vivo; settings: 2.5 hr after meal; for gastric retention (percentage of total radioactivity left in stomach): compound C up to 50 mg/kg oral, lubiprostone 0.1 mg/kg oral, FIG. 6
Protocol: Male Balb/C mice were fasted overnight with free access to water. Water was then removed for 30 min. Each mouse was subsequently gavaged a liquid meal of 0.5% methylcellulose (weight-to-volume w/v) and 10% corn oil (volume-to-volume v/v) in water containing 5-10 μCi of an non-absorbable Tc-sulfur colloid radioactive marker containing the compound C at doses of 5, 10 and 50 mg/kg (10 mL/kg), or lubiprostone at 100 μg/kg. A group was dosed with tegaserod (100 μg/kg) injected ip just prior to receiving vehicle by oral gavage. Control animals received vehicle only. Animals were kept for 30 minutes in empty cages then given access to food and water at libitum. They were euthanized 2.5 hours after dosing and their GI tract was excised from the stomach down. The stomach and small intestine were counted alone. The large intestine was extended and cut into 3 equally sized pieces, labeled 1 to 3 from caecum to rectum. Each section was counted individually. Feces, labeled 4, were collected, weighed, and counted. The geometric center (GC) of the large intestine/feces portion of the GI tract was calculated according to GC=(Σ(i×Ci))/(ΣCi), where i is the label of the segment (from 1 to 4) and Ci is the number of counts. GC is a number between 1 and 4. The closer GC is to 4, the faster the intestinal transit. Between 7 and 12 mice were used for each dose group. Gastric retention was calculated as percent of total dose counted. Gastric retentions between compound-dosed and vehicle-dosed animals were compared using a one-way ANOVA test and a Dunnett post-test. GC's and feces weights were compared between compound- and vehicle-dosed animals using a similar statistical methodology. In all cases, a P-value of less than 0.05 was considered statistically significant.

[4] = compound falls in class +++, read-out: EC50, class +++ (<500 nM)
[5] = X = compound falls in class +, read-out: EC50, class + (>1000 nM)

T1 sequence (P41231 whole entry): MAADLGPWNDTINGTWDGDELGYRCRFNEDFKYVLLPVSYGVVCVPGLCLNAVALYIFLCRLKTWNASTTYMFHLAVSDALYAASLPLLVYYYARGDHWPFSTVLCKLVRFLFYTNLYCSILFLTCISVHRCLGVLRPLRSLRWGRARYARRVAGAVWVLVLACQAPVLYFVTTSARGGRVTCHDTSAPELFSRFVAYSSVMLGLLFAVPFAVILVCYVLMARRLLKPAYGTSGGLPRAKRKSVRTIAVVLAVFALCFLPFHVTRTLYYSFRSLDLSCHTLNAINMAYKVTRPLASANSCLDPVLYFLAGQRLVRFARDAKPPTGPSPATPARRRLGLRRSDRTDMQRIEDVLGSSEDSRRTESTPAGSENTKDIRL

SMILES	EC50 (P2Y2 receptor; [4])	EC50 (P2Y2 receptor; [5])	geometric center (GC) of the small intestine (male Balb/C mice [2])	stomach retention, percentage of total radioactivity left in the stomach (male Balb/C mice [2])	further results
COc1ccc(N(C)C[C@@H]2O[C@H](COP(=O)(O)OP(=O)(O)OP(=O)(O)O)[C@@H](O)[C@H]2O)cc1 [Compound J, ((2R,3S,4R)-3,4-dihydroxy-5-(((4-methoxyphenyl)(methyl)amino)methyl)tetrahydrofuran-2-yl)methyltriphosphoric acid]		> 1000 nM			
O=P(O)(O)OP(=O)(O)OP(=O)(O)OC[C@H]1O[C@@H](CNc2cccnc2)[C@H](O)[C@@H]1O [Compound K, ((2R,3S,4R,5S)-3,4-Dihydroxy-5-((pyridin-3-ylamino)methyl)tetrahydrofuran-2-yl)methyltriphosphoric acid]		> 1000 nM			
O=P(O)(O)OP(=O)(O)OP(=O)(O)OC[C@H]1O[C@@H](Oc2cccnc2)[C@H](O)[C@@H]1O [Compound M, 3-Pyridyl-β-D-ribofuranosid-5′-triphosphate]		> 1000 nM			
COc1ccc(O[C@@H]2O[C@H](COP(=O)(O)OP(=O)(O)OP(=O)(O)OP(=O)(O)OC[C@H]3O[C@@H](c4c[nH]c(=O)[nH]c4=O)[C@H](O)[C@@H]3O)[C@@H](O)[C@H]2O)cc1 [Compound N]					EC50 (P2Y2 receptor; X in this column = compound falls in class ++, read-out: EC50, class ++ (500-1000 nM)): 500 to 1000 nM
Cn1cnc2c(ncn2[C@@H]2O[C@H](COP(=O)(O)OP(=O)(O)OP(=O)(O)O)[C@@H](O)[C@H]2O)c1=N [Compound P, 1-Methyl-Adenosine-5′-triphosphate]	< 500 nM				
CCCCC(F)(F)[C@@]1(O)CC[C@H]2[C@@H](CC(=O)[C@@H]2CCCCCCC(=O)O)O1 [lubiprostone]			No statistical significance was observed	No statistical significance was found	gastric retention (percentage of total radioactivity left in stomach) (male Balb/C mice [3]): significant delay in gastric emptying
[H]/N=C(/NCCCCC)N/N=C/c1c[nH]c2ccc(OC)cc12 [tegaserod]			No statistical significance was observed	statistically significance for tegaserod versus vehicle using Student's t-test	

Second part, led by results:

EC50 (P2Y2 receptor; [4])	EC50 (P2Y2 receptor; [5])	SMILES	geometric center (GC) of the small intestine (male Balb/C mice [2])	stomach retention, percentage of total radioactivity left in the stomach (male Balb/C mice [2])	further results
< 500 nM		COc1ccc(O[C@@H]2O[C@H](COP(=O)(O)OP(=O)(O)OP(=O)(O)OP(=O)(O)OC[C@H]3O[C@@H](n4cnc5c(=N)n(C)cnc54)[C@H](O)[C@@H]3O)[C@@H](O)[C@H]2O)cc1 [Compound C]	No statistical significance was observed	No statistical significance was found	total weight of feces (wet, dry) and water content produced during 3 hours (male Balb/C mice [1]; 3 hrs after dosing, FIG. 2): dose-dependent increase in wet, and dry feces, as well as in water content; time to first red-colored feces (total GI transit time) (male Balb/C mice [1]; vs vehicle, FIG. 1): time to first red pellet decreases with increasing dose; gastric retention (percentage of total radioactivity left in stomach) (male Balb/C mice [3]): virtually no effect on gastric retention; geometric center (GC) of the large intestine and feces (male Balb/C mice [3]; oral 5, 10 and 50 mg/kg, FIG. 7): calculated large intestine geometric center increases with increasing dose; percentage of total radioactivity found in the feces (male Balb/C mice [3]; oral 5, 10 and 50 mg/kg, FIG. 8): dose-dependent increase of % total radioactivity starting at 5 mg/kg dose at a percentage equivalent to that obtained with lubiprostone and tegaserod; dose with statistically significant effect on large intestine transit (male Balb/C mice [3]; oral, P<0.05 vs vehicle): ≥ 10 mg/kg; geometric center (GC) of the large intestine, effect compared with reference drugs (male Balb/C mice [3]; compound C 5 mg/kg oral): equivalent to that obtained with doses of lubiprostone (0.1 mg/kg) and tegaserod (0.1 mg/kg)
< 500 nM		CNc1c2ncn([C@@H]3O[C@H](COP(=O)(O)OP(=O)(O)OP(=O)(O)OP(=O)(O)OC[C@H]4O[C@@H](Oc5ccc(OC)cc5)[C@H](O)[C@@H]4O)[C@@H](O)[C@H]3O)c2nc[n+]1C [Compound D]			
	> 1000 nM	COc1ccc(O[C@@H]2O[C@H](COP(=O)(O)OP(=O)(O)OP(=O)(O)OC[C@H]3O[C@@H](n4cnc5c(=N)n(C)cnc54)[C@H](O)[C@@H]3O)[C@@H](O)[C@H]2O)cc1 [Compound E]			

Reference: US8569259B2, “Adenosine analogs and their use” (Microdose Therapeutx, Inc., priority 2006, dated 2013)
